In US20060148858A1, “1, 2-Azole derivatives with hypoglycemic and hypolipidemic activity” (priority 2002, published 2006):

What was measured:
PPARδ-RXRα heterodimer = biological target: T1, PPARδ-RXRα heterodimer (Homo sapiens, UniProt Q03181); assay: PPARδ-RXRα heterodimer ligand activity, luciferase reporter in COS-1 transformant (Test Example 4); type: cell-based; conditions: COS-1 transformant (hPPARδ, hRXRα, reporter), 36-48 hours, concentration for 50% of the maximum fold induction
T1 construct: expressed in transfected cells; host or cells: COS-1
T1 sequence (Q03181 1-441): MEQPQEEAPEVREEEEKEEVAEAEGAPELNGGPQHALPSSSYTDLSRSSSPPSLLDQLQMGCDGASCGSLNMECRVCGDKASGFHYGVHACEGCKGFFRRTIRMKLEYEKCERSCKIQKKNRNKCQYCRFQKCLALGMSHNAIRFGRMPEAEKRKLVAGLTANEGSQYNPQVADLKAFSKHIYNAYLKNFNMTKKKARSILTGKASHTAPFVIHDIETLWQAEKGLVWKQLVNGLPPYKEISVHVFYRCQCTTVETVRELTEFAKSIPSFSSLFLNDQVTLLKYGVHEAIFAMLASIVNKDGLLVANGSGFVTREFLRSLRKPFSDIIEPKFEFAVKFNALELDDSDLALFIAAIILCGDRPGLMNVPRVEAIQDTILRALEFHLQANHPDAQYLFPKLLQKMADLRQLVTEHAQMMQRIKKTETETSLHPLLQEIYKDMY
T1 sequence (P19793 1-462 partner): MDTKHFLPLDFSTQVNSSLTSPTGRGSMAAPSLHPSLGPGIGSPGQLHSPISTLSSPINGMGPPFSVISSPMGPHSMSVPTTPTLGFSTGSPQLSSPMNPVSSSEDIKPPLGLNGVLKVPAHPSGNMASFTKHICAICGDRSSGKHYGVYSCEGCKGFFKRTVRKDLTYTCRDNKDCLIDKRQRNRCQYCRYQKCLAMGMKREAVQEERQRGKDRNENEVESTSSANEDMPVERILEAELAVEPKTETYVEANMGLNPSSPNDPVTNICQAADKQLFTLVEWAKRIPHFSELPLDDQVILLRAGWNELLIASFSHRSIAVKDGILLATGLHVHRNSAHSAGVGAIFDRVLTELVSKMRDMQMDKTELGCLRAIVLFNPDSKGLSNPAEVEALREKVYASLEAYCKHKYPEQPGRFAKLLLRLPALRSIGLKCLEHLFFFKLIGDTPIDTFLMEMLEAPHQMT
Procedure: The transformant obtained in Reference Example 9a was suspended in DMEM medium (produced by Life Technologies, Inc., USA) containing 0.1% fatty acid-free bovine serum albumin (BSA) (produced by Wako Pure Chemical Industries, Ltd.), and inoculate to each well of a 96-well white plate (produced by Corning Costar Corporation, USA) by 80 μl at 1×10^4 cells/well. Then the test compound (20 μl) was added and cultured at 37° C. under 5% CO2 for 36-48 hours. After removing the medium from the 96-well white plate, 40 μl of PIKKAGENE LT 7.5 (produced by Wako Pure Chemical Industries, Ltd.) diluted twice with HBSS (HANKS' BALANCED SALT SOLUTION)(produced by BIO WHITTAKER Inc., USA), was added. After stirring, the luciferase activity was determined using 1420 ARVO Multilabel Counter (produced by PerkinElmer Inc., USA).
A fold induction was calculated based on the luciferase activity of each test compound by taking the luciferase activity in the non-treatment group as 1. The values of the test compound concentration and the fold induction were analyzed using PRISM (produced by GraphPad Software Inc. USA) to calculate the EC50 values, the effective concentration of a test compound for 50% of the maximum fold induction.
COS-1 cells were inoculated to a 150 cm^2 cell culture flask (produced by Corning Costar Corporation, USA) at the density of 5×10^6 cells/50 ml, and cultured at 37° C. under 5% CO2 conditions for 24 hours. Subsequently, a DNA was introduced into the cell under the condition shown below using Lipofectamine (produced by Invitrogen, USA).
First, Lipofectamine (125 μl), PLUS Reagent (100 μl, produced by Invitrogen, USA), plasmid pMCMVneo-hPPARδ (2.5 μg) obtained in Reference Example 3a, plasmid pMCMVneo-hRXRα (2.5 μg) obtained in Reference Example 4a and reporter plasmid pGL3-4ERPP-TK neo (5 μg) obtained in Reference Example 5a, and pRL-tk (5 μg, produced by Promega, USA) were mixed with opti-MEM (5 ml, produced by Invitrogen, USA) to give a transfection mixture.
Then, the above-mentioned transfection mixture and opti-MEM (20 ml) were added to COS-1 cells washed with opti-MEM, and the cells were cultured at 37° C. under 5% CO2 conditions for 3 hours. DMEM medium (25 ml, produced by Life Technologies, Inc., USA) containing 0.1% fatty acid-free bovine serum albumin (BSA) (produced by Wako Pure Chemical Industries, Ltd.) was added to the obtained COS-1 cells, and the cells were cultured at 37° C. under 5% CO2 conditions for 18-24 hours to give a transformant.

| EC50 (PPARδ-RXRα heterodimer) | melting point | Compound |
| --- | --- | --- |
| 3.9 nM | 106 to 107 °C | CCCc1nn(-c2ccc(C(F)(F)F)cn2)cc1CCCOc1cccc(CC(=O)O)c1 [Example 44, [3-(3-{3-propyl-1-[5-(trifluoromethyl)-2-pyridyl]-1H-pyrazol-4-yl}propoxy)phenyl]acetic acid] |
| 2.8 nM | 155 to 156 °C | CCOc1nn(-c2ccc(C(F)(F)F)cn2)cc1CCOc1cc(CCC(=O)O)n(-c2ccccc2)n1 [Example 56, 3-[3-(2-{3-ethoxy-1-[5-(trifluoromethyl)-2-pyridinyl]-1H-pyrazol-4-yl}ethoxy)-1-phenyl-1H-pyrazol-5-yl]propanoic acid] |
| 0.81 nM | 128 to 130 °C | CCOc1nn(-c2ccc(C(F)(F)F)cn2)cc1CCOc1cccc(CC(=O)O)c1 [Example 62, [3-(2-{3-ethoxy-1-[5-(trifluoromethyl)-2-pyridinyl]-1H-pyrazol-4-yl}ethoxy)phenyl]acetic acid] |
| 3.8 nM | 147 to 148 °C | CCOc1nn(-c2ccc(C(F)(F)F)cn2)cc1CCOc1ccc(CCC(=O)O)c(OC)c1 [Example 75, 3-[4-(2-{3-ethoxy-1-[5-(trifluoromethyl)-2-pyridinyl]-1H-pyrazol-4-yl}ethoxy)-2-methoxyphenyl]propanoic acid] |
| 1.9 nM | 117 to 119 °C | CCOc1nn(-c2ccc(C(F)(F)F)cn2)cc1CCOc1ccc(CCC(=O)O)c(C)c1 [Example 76, 3-[4-(2-{3-ethoxy-1-[5-(trifluoromethyl)-2-pyridinyl]-1H-pyrazol-4-yl}ethoxy)-2-methylphenyl]propanoic acid] |
| 6 nM | 120 to 121 °C | CCOc1nn(-c2ccc(C(F)(F)F)cn2)cc1CCCOc1ccc(CCC(=O)O)c(OC)c1 [Example 85, 3-[4-(3-{3-ethoxy-1-[5-(trifluoromethyl)-2-pyridyl]-1H-pyrazol-4-yl}propoxy)-2-methoxyphenyl]propionic acid] |
| 1.5 nM | 114 to 115 °C | CCCc1nn(-c2ccc(C(F)(F)F)cn2)cc1CCCOc1ccc(CCC(=O)O)c(OC)c1 [Example 86, 3-[2-methoxy-4-(3-{3-propyl-1-[5-(trifluoromethyl)-2-pyridyl]-1H-pyrazol-4-yl}propoxy)phenyl]propionic acid] |
| 6 nM | 88 to 89 °C | CCCc1nn(-c2ccc(C(F)(F)F)cn2)cc1CCCOc1cc(CC(=O)O)ccc1F [Example 91, [4-fluoro-3-(3-{3-propyl-1-[5-(trifluoromethyl)-2-pyridyl]-1H-pyrazol-4-yl}propoxy)phenyl]acetic acid] |
| 4 nM | 134 to 135 °C | CCCc1nn(-c2ccc(C(F)(F)F)cn2)cc1CCCOc1ccc(CC(=O)O)c(C)c1 [Example 94, [2-methyl-4-(3-{3-propyl-1-[5-(trifluoromethyl)-2-pyridyl]-1H-pyrazol-4-yl}propoxy)phenyl]acetic acid] |
| 1.7 nM | 126 to 127 °C | CCCc1nn(-c2ccc(C(F)(F)F)cn2)cc1CCCOc1ccc(CCC(=O)O)cc1OC [Example 96, 3-[3-methoxy-4-(3-{3-propyl-1-[5-(trifluoromethyl)-2-pyridyl]-1H-pyrazol-4-yl}propoxy)phenyl]propionic acid] |

Continued, compound first:

| Compound | EC50 (PPARδ-RXRα heterodimer) | melting point |
| --- | --- | --- |
| CCCc1nn(-c2ccc(C(F)(F)F)cn2)cc1CCCOc1ccc(CC(=O)O)cc1 [Example 46, [4-(3-{3-propyl-1-[5-(trifluoromethyl)-2-pyridyl]-1H-pyrazol-4-yl}propoxy)phenyl]acetic acid] | 6.4 nM | 101 to 102 °C |
| CC(C)c1nn(-c2ccc(C(F)(F)F)cn2)cc1CCCCOc1cc(CCC(=O)O)n(-c2ccccc2)n1 [Example 49, 3-[3-(4-{3-isopropyl-1-[5-(trifluoromethyl)-2-pyridinyl]-1H-pyrazol-4-yl}butoxy)-1-phenyl-1H-pyrazol-5-yl]propanoic acid] | 1.7 nM | 137 to 138 °C |
| CC(C)c1nn(-c2ccc(C(F)(F)F)cn2)cc1CCCCOc1cccc(CC(=O)O)c1 [Example 51, [3-(4-{3-isopropyl-1-[5-(trifluoromethyl)-2-pyridinyl]-1H-pyrazol-4-yl}butoxy)phenyl]acetic acid] | 3.9 nM | – |
| CCCc1nn(-c2ccc(C(F)(F)F)cn2)cc1CCCCOc1cccc(CC(=O)O)c1 [Example 59, [3-(4-{3-propyl-1-[5-(trifluoromethyl)-2-pyridinyl]-1H-pyrazol-4-yl}butoxy)phenyl]acetic acid] | 9.7 nM | 96 to 97 °C |
| CCCc1nn(-c2ccc(C(F)(F)F)cn2)cc1CCCCOc1cc(CC(=O)O)ccc1OC [Example 63, [4-methoxy-3-(4-{3-propyl-1-[5-(trifluoromethyl)-2-pyridinyl]-1H-pyrazol-4-yl}butoxy)phenyl]acetic acid] | 9.5 nM | 147 to 148 °C |
| CCCc1nn(-c2ccc(C(F)(F)F)cn2)cc1CCCOc1ccc(CCC(=O)O)c(C)c1 [Example 65, 3-[2-methyl-4-(3-{3-propyl-1-[5-(trifluoromethyl)-2-pyridinyl]-1H-pyrazol-4-yl}propoxy)phenyl]propanoic acid] | 1.8 nM | 124 to 126 °C |
| CCCc1nn(-c2ccc(C(F)(F)F)cn2)cc1CCCOc1cc(CCC(=O)O)cc(OC)c1 [Example 92, 3-[3-methoxy-5-(3-{3-propyl-1-[5-(trifluoromethyl)-2-pyridyl]-1H-pyrazol-4-yl}propoxy)phenyl]propionic acid] | 1.9 nM | 98 to 99 °C |
| CCOc1cc(OCCCc2cn(-c3ccc(C(F)(F)F)cn3)nc2-c2ccccc2)ccc1CCC(=O)O [Example 99, 3-[2-ethoxy-4-(3-{3-phenyl-1-[5-(trifluoromethyl)-2-pyridinyl]-1H-pyrazol-4-yl}propoxy)phenyl]propanoic acid] | 0.55 nM | 135 to 136 °C |
| CCOc1nn(-c2ccc(C(F)(F)F)cc2)cc1CCCOc1cc(CCC(=O)O)n(-c2ccccc2)n1 [Example 111, 3-[3-(3-{3-ethoxy-1-[4-(trifluoromethyl)phenyl]-1H-pyrazol-4-yl}propoxy)-1-phenyl-1H-pyrazol-5-yl]propanoic acid] | 6.1 nM | 126 to 127 °C |
| calcium 2-[3-(3-{3-ethoxy-1-[4-(trifluoromethyl)phenyl]-1H-pyrazol-4-yl}propoxy)phenoxy]-2-methylpropanoate [Example 105] | 7.2 nM | – |
| calcium 2-[3-(4-{3-ethoxy-1-[5-(trifluoromethyl)-2-pyridinyl]-1H-pyrazol-4-yl}butoxy)phenoxy]-2-methylpropanoate [Example 102] | 9.1 nM | – |
| calcium 3-[3-ethoxy-1-(4-{3-ethoxy-1-[5-(trifluoromethyl)-2-pyridinyl]-1H-pyrazol-4-yl}butyl)-1H-pyrazol-4-yl]propanoate [Example 110] | 4.6 nM | – |
